In ChEMBL document CHEMBL1129100, “Non-peptide glycoprotein IIb/IIIa inhibitors. 9. Centrally constrained alpha-sulfonamides are useful tools for exploring platelet receptor function” (Bioorg Med Chem Lett, 1996):

Biological target: Integrin alpha-IIb/beta-3 (Homo sapiens) (UniProt P05106+P08514)
Assay: Affinity for purified alpha IIb beta-3 integrin
Assay type: protein-complex assay

ED50 [µM] | Compound
0.0021 | CN(C)c1cccc2c(S(=O)(=O)N[C@@H](CNC(=O)c3ccc4c(c3)C(=O)N(CCC3CCNCC3)C4)C(=O)O)cccc12
0.012 | O=C(O)CCNC(=O)c1ccc2c(c1)C(=O)N(CCC1CCNCC1)C2
0.0009 | CCCCS(=O)(=O)N[C@@H](Cc1ccc(OCCCCC2CCNCC2)cc1)C(=O)O [TIROFIBAN]
0.0019 | O=C(O)C1=C/C(=N\C(S)=N\CCS(=O)(=O)N[C@@H](CNC(=O)c2ccc3c(c2)C(=O)N(CCC2CCNCC2)C3)C(=O)O)C=CC1=C1c2ccc(O)cc2Oc2cc(O)ccc21

Species on record: Homo sapiens
Assay: Inhibition of human gel filtered platelet aggregation stimulated by ADP ([…])
Assay type: functional, organism-based

IC50 [µM] | Compound
0.012 | CN(C)c1cccc2c(S(=O)(=O)N[C@@H](CNC(=O)c3ccc4c(c3)C(=O)N(CCC3CCNCC3)C4)C(=O)O)cccc12
0.027 | O=C(O)CCNC(=O)c1ccc2c(c1)C(=O)N(CCC1CCNCC1)C2
0.018 | CCCCS(=O)(=O)N[C@@H](Cc1ccc(OCCCCC2CCNCC2)cc1)C(=O)O [TIROFIBAN]
0.031 | O=C(O)C1=C/C(=N\C(S)=N\CCS(=O)(=O)N[C@@H](CNC(=O)c2ccc3c(c2)C(=O)N(CCC2CCNCC2)C3)C(=O)O)C=CC1=C1c2ccc(O)cc2Oc2cc(O)ccc21
